According to patent US4777143A, “Method of detecting carboxylic acids in a specimen” (priority 1986, dated 1988):
Like-named read-outs stand apart in the source and are kept apart here.

Experiments:
[1] = Guaiac solubility in solvents / reagent solubility in water
Protocol: Color developing reagent was prepared as follows. […] Four ml of a given solvent as indicated in Table 2 were added and the guaiac was allowed to dissolve to the extent possible.
Subsequently, 48 μl of 80% cumene hydroperoxide was added to each tube (except to that containing the water-only sample) to make a complete color developing reagent (solvent, chromogen, oxidant) for testing.

[2] = Water miscibility of solvents; type: physicochemical; parameters: key: -: Where phase separation was visible; +: otherwise; details: 0.5 ml water + 0.5 ml solvent
Protocol: Various solvents were tested for their utility with regard to (1) water miscibility, (2) guaiac solubility and (3) color development. Water miscibility was evaluated by admixing 0.5 ml of water with 0.5 ml each solvent, and noting any phase separation. Where phase separation was visible, a "-" appears in Table 2; otherwise, a "+" appears.

GUAIAC SOLUBILITY [1]	Molecule	GUAIAC SOLUBILITY ([1]; noted visually)	WATER MISCIBILITY [2]	solubility of cumene hydroperoxide in water ([1]; water)
	CC(Cl)(Cl)Cl [1,1,1-trichloroethane]	++	-	
	CC(C)c1ccc(CO)cc1 [4-Isopropyl-Benzyl Alcohol]	+++	-	
+++	CC(=O)CC(C)(C)O [4-hydroxy, 4 methyl-pentanone]			
	CC(C)=O [Acetone]	+++	+	
	CC(C)c1ccccc1 [Cumene]	+	-	
	ClCCl [Dichloromethane]	++	-	
+++	CCO [Ethanol]		+	
	CCOC(C)=O [Ethyl Acetate]	++	-	
	OCCO [Ethylene Glycol]	+++	+	
	CC(C)O [Isopropanol]	+++	+	
	CCC(C)=O [Methyl Ethyl Ketone]		+	
	COC(=O)CC(C)=O [Methyl-Acetoacetate]	+++	+	
++	CCCCCCCCOC(C)=O [Octyl Acetate]		-	
	Cc1ccccc1 [Toluene]		-	
	CC(C)(OO)c1ccccc1 [cumene hydroperoxide, reference compound]			essentially insoluble in water
	CCCCCCCO [n-Heptanol]	+++	-	
	CCCCCCO [n-Hexanol]		-	
	CCCCCCCC [n-Octane]	-	-	
+++	CCCCCCCCO [n-Octanol]		-	
+++	CCCCCO [n-Pentanol]		-	

Molecule	GUAIAC SOLUBILITY [1]	GUAIAC SOLUBILITY ([1]; noted visually)	WATER MISCIBILITY [2]	solubility of cumene hydroperoxide in water ([1]; water)
OCc1ccccc1 [Benzyl Alcohol]	+++		-	
Hexanes	-		-	
